{
  "source": "patent US8530456B2",
  "about": "“Sonic hedgehog modulators” (President and Fellows of Harvard College, priority 2008, dated 2013)",
  "key": {"[1]": {"biological_target": "ShhN (N-terminal fragment of Sonic Hedgehog protein) (Homo sapiens, UniProt Q15465)", "sequence (Q15465 24-197)": "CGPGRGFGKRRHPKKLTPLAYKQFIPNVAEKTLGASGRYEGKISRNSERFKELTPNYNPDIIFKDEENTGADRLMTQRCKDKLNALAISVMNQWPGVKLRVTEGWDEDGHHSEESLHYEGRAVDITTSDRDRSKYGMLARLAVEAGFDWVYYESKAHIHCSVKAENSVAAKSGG", "experiment": "Surface plasmon resonance (SPR) binding to immobilized purified ShhN", "details": "for ShhN binding in SPR: 0.78-25 μM compound", "protocol": "Biacore™ T100 (GE Healthcare, Uppsala, Sweden) was used to perform the experiments reported herein. Sensor surface preparation and interaction analyses experiments were performed at 25° C. Prior to surface preparation, lyophilized ShhN protein (R&D Systems) was dissolved in either water or PBS buffer, at pH 7.4 and protein purity determined by Nu-Page 4-12% Bis-Tris gel in MOPS buffer with a silver stain sensor preparation.\nShhN was immobilized onto series S sensor chip CM4 via a standard N-ethyl-N′-(dimethylaminopropyl)carbodiimide/N-hydroxysuccinimide (EDC/NHS) amine coupling procedures (Biacore Sensor Surface Handbook, 2003, version AA, Biacore, Uppsala, Sweden). Shh was diluted to 10 μg/mL in 10 mM sodium acetate pH 5.5 for these procedures and resultant immobilization levels were 1000-1200 R.U.s. Control surfaces were prepared similarly without protein derivatization and utilized as a reference surfaces for compound binding experiments.\nFor compound interaction analyses, 0.01 M Hepes, pH 7.4, 0.15 M NaCl, 0.05% Surfactant P20 and 5% DMSO was used for both running and sample buffers. Compound samples were prepared by serial dilution in the range 0.78 uM-25 uM and flowed over control and derivatized surfaces for two minutes at a flow-rate of 80 μL/min. Zero concentration blank buffer cycles were included as negative control samples. Solvent correction procedures were included to compensate for any DMSO related bulk refractive index variations and performed as described previously (Karlsson, R. et al. Anal. Biochem. 278, 1-13, 2000). Non-specific binding effects to sensor surface CM4 were absent for all analyses reported.\nData analysis was carried out using Biacore T100 evaluation software v1.1.1. Data were prepared by subtraction of reference surface data and blank buffer sample data, a procedure commonly referred to as ‘double referencing’ (Myszka, D. G. J. Mol. Recognit. 12, 1-6, 1999). Solvent correction was then applied as described previously."}, "ShhN protein (rmShh)": {"biological_target": "T1, ShhN protein (rmShh) (Mus musculus, UniProt Q62226)", "T1 construct": "Recombinant mouse amino-terminal peptide 461-CF (rmShh); purchased R & D Systems 461-CF", "T1 sequence (Q62226 25-198 limits assumed)": "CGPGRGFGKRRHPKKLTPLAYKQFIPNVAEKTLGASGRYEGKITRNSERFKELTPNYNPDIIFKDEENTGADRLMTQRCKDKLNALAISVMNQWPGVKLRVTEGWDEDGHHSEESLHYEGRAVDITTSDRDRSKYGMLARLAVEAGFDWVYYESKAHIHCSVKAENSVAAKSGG", "experiment": "Small molecule microarray (SMM) screen for ShhN binding", "details": "screened in triplicate", "protocol": "A screen of the ShhN protein was performed using small molecule microarrays (SMMs) containing a collection of approximately 10,000 diversity-oriented synthesis (DOS) compounds and natural products that has been reported by Koehler and co-workers, in which the entire library was arrayed on a single microscope slide (Bradner, J. E. et al. Chem. Biol. 13, 493-504, 2006). Three SMM slides were used to screen for small molecules that bind the ShhN protein, while two slides were designated as protein-free negative controls. Binding was detected by the use of a biotinylated anti-ShhN antibody, followed by incubation with streptavidin alexa 647. The treated slides were then scanned with a microarray plate reader. The duplicate negative controls eliminated many false positives, while screening in triplicate increased the accuracy of the results. Microarray image analysis was performed with GenePix Pro software (Molecular Devices, Sunnyvale Calif.). […] The software was then used to select all remaining possible positives in the ShhN-treated slides that exceeded our criteria for fluorescence intensity threshold. […]\nThe three experimental SMM slides were incubated on parafilm (Alcon, Menasha Wis.) with 300 μL of a 25 μg/mL rmShh solution in a 0.1% BSA in PBS buffer. […] Slides were dried by centrifugation and scanned with a GenePix 4000B microarray plate reader (Axon Instruments, Sunnyvale Calif.). […]"}, "[2]": {"test_system": "Ptc1-/- MEF cell line (Gli1-beta-galactosidase reporter)", "experiment": "Ptc1-/- cell line beta-galactosidase reporter assay", "assay_type": "cell-based, mouse", "protocol": "To explore further the potential mechanism of Shh pathway inhibition involving direct perturbation of the ShhN protein complex, the same compounds were tested in a Ptc1^−/− cell line derived from mouse embryos lacking Ptc1 function. The cell line had both Ptc1 alleles replaced with a β-galoctosidase (β-gal) reporter (Surajit et al., supra). Because Ptc1 inhibits Hh pathway activation by repressing Smo function, removing both Ptc1 alleles results in constitutive pathway activation.\nThe ptc−/− cell line was derived from an embryonic mouse fibroblast cell line transfected with a β-galactosidase construct. The cell line was cultured in DMEM with 10% FBS until confluent, and then cells were plated 1:5 into white 96-well optical-bottom plates and allowed to reach a confluent state over 3-4 days while incubating at 37° C. After reaching confluency, the medium was removed from each well, and the cells were treated with test compound (for example, robotnikinin or cyclopamine) (EMD Biosciences, San Diego, Calif.) in DMEM with 0.5% FBS. After a 30 hour incubation, the wells were treated with Beta-Glo assay reagent (Promega, Madison, Wis.) and allowed to be gently agitated for 30 minutes at room temperature. After the agitation was complete, plates were read with an Envision Multi-Label Reader 2102 luminometer."}, "Gli2 mRNA": {"test_system": "Gli2 mRNA", "experiment": "Gli2 mRNA by qPCR in primary human keratinocytes", "assay_type": "cell-based", "excerpt": "(§1) Culturing of primary human keratinocytes was previously described (Nguyen, B. C., et al., Genes & Dev. 20:1028-1042 (2006)). The full thickness skin model, EpiDermFT System (MatTek, Ashland), consists of normal, human-derived epidermal keratinocytes and normal, human-derived dermal fibroblasts which have been cultured to form a multilayered, highly differentiated model of the human dermis and epidermis.\n(§2) Gene expression was compared by quantifying mRNA levels by real time RT-PCR. For this, total RNA preparations (1 μg) were used in a reverse transcriptase reaction with a mix of oligonucleotide dT and random hexamer primers, followed by real time PCR with gene-specific primers (Gli1: Qiagen Quantitect PrimerAssay QT00060501; Gli2: Qiagen Quantitect PrimerAssay QT00018648), using an Icycler IQTM real time detection system (Bio-Rad) according to the manufacturer's recommendation, with SYBR Green (Bio-Rad) for detection. Each sample was tested in triplicate, and the results were normalized by real time PCR of the same cDNA with 36B4 primers (36B4 forward primer: 5′-GCAATGTTGCCAGTGTCTGT 3; reverse primer, 5′-GCCTTGACCTTTTCAGCAAG-3′)."}, "ShhL2 cells": {"test_system": "ShhL2 cells", "experiment": "Cell Titer Glo cell viability assay run in parallel in ShhL2 cells", "assay_type": "cell-based", "protocol": "(§3) ShhL2 cells are NIHT3 cells that have been transfected with a Gli-luciferase construct, as previously reported (Tapaile, et al. 2000; Surajit, et al., supra). ShhL2 cells (ATCC, Manassas, Va.) were cultured with DMEM (GIBCO, Carlsbad, Calif.), 10% Calf Bovine Serum (ATCC Manassas, Va.), 0.4 mg/ml G-418 (ATCC, Manassas, Va.), 0.15 mg/ml Zeocin (Invitrogen, Carlsbad Calif., Cat. No. R25001) at 37° C. When confluent, the cells were plated 1:5 into white 96-well optical-bottom plates and allowed to reach confluence over approximately 5-7 days. When confluent, the medium was removed and the ShhL2 cells were treated with test compound (for example, robotnikinin or cyclopamine) (EMD Biosciences, San Diego, Calif.) in DMEM with 0.5% Calf Bovine Serum. After incubation for 30 hours, each well was treated with 100 μL of Bright-Glo luciferase assay reagent (Promega, Madison, Wis.) and the plate was read with an Envision Multi-Label Reader 2102 luminometer (Perkin Elmer, Waltham, Mass.). Wells treated in identical fashion were then treated with Cell Titer-Glo reagent (Promega, Madison, Wis.) and read with an Envision Multi-Label Reader 2102 luminometer after being allowed to stand 10 minutes at room temperature."}, "[3]": {"test_system": "Gli1 (Gli-dependent firefly luciferase reporter, ShhL2 cell line)", "experiment": "ShhL2 (Shh-LIGHT2) Gli-luciferase reporter assay", "assay_type": "cell-based", "protocol": "We examined the activity of the new series of AML compounds in Shh-LIGHT2 cells (ATCC, Manassas Va.) (Tapaile, J., et al., 2000 supra), which is an NIH3T3 cell line with a Gli-dependent firefly luciferase reporter.\nTherefore, compounds that repress Gli1 activity would be putative inhibitors of Shh signaling in the cell line in which the experiments were carried out. We examined the activity of the new series of AML compounds in the Shh Light II cell line, or ShhL2 line (ATCC, Manassas Va.) (Tapaile, J., et al., 2000 supra), which is an NIH3T3 line transformed with a Gli-luciferase construct along with zeocin and G418 resistance vectors to select for the transformed strains during normal culturing.\nas §3"}, "hair regrowth": {"test_system": "hair regrowth", "experiment": "Topical application after depilation, hair regrowth in mice", "assay_type": "in vivo, mouse", "protocol": "Eight-week-old C57BL/6J female mice were purchased from Charles River (Boston, Mass.). Mice were housed in community cages at the animal facilities of the Massachusetts General Hospital. All mice were fed water and murine chow ad libitum and kept under 12 h light/dark cycles. Active hair growth (anagen) was induced in the back skin during the telogen phase of the hair cycle by application of the wax-rosin mixture with subsequent depilation, as described before (Paus, R., Stenn, K. S., Link, R. E. (1990). Br. J. Dermatol. 122, 777-784).\nRobotnokinin was dissolved in 10% DMSO and applied every day topically on the depilated skin surface. Mice were kept in individual cages to avoid scratching. Telogen-anagen transformation was studied at the following time points: telogen (unmanipulated skin), anagen (day 8 postdepilation) and very late anagen (day 12 postdepilation) (see FIG. 8a, top panels). In all experiments, the neck region of back skin was harvested parallel to the vertebral line for either heat-mediated epidermal separation and subsequent real time RT-PCR analysis for Gli1 and Gli2 expression levels or embedded for histology on frozen sections (see FIG. 8a, bottom panel, and FIG. 8b)."}, "[4]": {"test_system": "Gli1 and Gli2 transcripts", "experiment": "Synthetic skin (primary human keratinocytes on collagen matrix): qPCR and histology", "assay_type": "cell-based", "excerpt": "as §1, §2"}, "Gli1 mRNA": {"test_system": "Gli1 mRNA", "experiment": "Gli1 mRNA by qPCR in primary human keratinocytes", "assay_type": "cell-based", "excerpt": "as §1, §2"}},
  "note": "“Also recorded” adds a separate entry of the source.",
  "data": [
    {"smiles": "CC1CNC(=O)C(CC(=O)N(CCO)Cc2ccccc2)CC=CCCC(N)C(=O)O1", "note": "(centres unmarked) [AML1]", "values": [
      {"measurement": "ShhN binding in SPR", "setting": "[1]", "result": "binding to ShhN in a concentration-dependant fashion"},
      {"measurement": "SMM screen result", "setting": "ShhN protein (rmShh)", "result": "assay positives"}
    ]},
    {"smiles": "CC1COC(=O)C(N)CCC=CCC(CC(=O)N(CCO)Cc2ccccc2)C(=O)N1", "note": "(centres unmarked) [AML2]", "values": [
      {"measurement": "ShhN binding in SPR", "setting": "[1]", "result": "binding to ShhN in a concentration-dependant fashion"},
      {"measurement": "SMM screen result", "setting": "ShhN protein (rmShh)", "result": "assay positives"}
    ]},
    {"smiles": "CC1=C2C[C@H]3[C@@H](CC=C4C[C@@H](O)CC[C@@]43C)[C@@H]2CC[C@]12O[C@@H]1C[C@H](C)CN[C@H]1[C@H]2C", "note": "[cyclopamine, reference compound]", "values": [
      {"measurement": "pathway inhibition in Ptc1-/- cell line", "setting": "[2]; 6.6 μM cyclopamine", "result": "significant pathway inhibition"}
    ]},
    {"smiles": "O=C(C[C@@H]1C/C=C/CCC(=O)O[C@H](c2ccccc2)CNC1=O)NCc1ccc(Cl)cc1", "note": "[robotnikinin, N-(4-chlorobenzyl)-2-((2R,6S,E)-5,12-dioxo-2-phenyl-1-oxa-4-azacyclododec-8-en-6-yl)acetamide]", "values": [
      {"measurement": "endogenous Gli2 mRNA level", "setting": "Gli2 mRNA", "result": "lowers levels; also recorded: lower levels of endogenous Gli2 mRNA"},
      {"measurement": "cytotoxicity", "setting": "ShhL2 cells; Cell Titer Glo, ShhL2 cells, concentration above which cytotoxic", "result": "none"},
      {"measurement": "cytotoxicity", "setting": "ShhL2 cells; cell titer viability assay", "result": "No significant cytotoxicity was observed"},
      {"measurement": "pathway inhibition in Ptc1-/- cell line", "setting": "[2]; 30 h, any concentration tested, normalized for cell titer", "result": "no pathway inhibition was observed; also recorded: pathway inhibition was not observed"},
      {"measurement": "EC50", "setting": "[3]; Shh Light2, ShhL2 cell line, Bright Glo luciferase, approximations based on concentration curves", "result": "~4", "unit": "µM"},
      {"measurement": "concentration giving inhibition comparable to 6.25 μM cyclopamine", "setting": "[3]; Shh-LIGHT2 cells", "result": "above 30 μM"},
      {"measurement": "inhibition with co-administered purmorphamine", "setting": "[3]; Shh-LIGHT2 cells, ShhN-conditioned medium plus 3.6 μM purmorphamine", "result": "virtually all of the inhibitory effect was eliminated; also recorded: negligible inhibition"},
      {"measurement": "Gli1 ECmax", "setting": "[3]; ShhL2 cell line, concentration of maximal effect", "result": 62.5, "unit": "µM"},
      {"measurement": "Shh pathway inhibition / Gli1 suppression", "setting": "[3]; ShhN-conditioned medium, 30 h incubation", "result": "concentration-dependent inhibition of ShhN-induced pathway activation; also recorded: strong concentration dependent Gli1 suppression"},
      {"measurement": "% CI (% cyclopamine inhibition), footnote d", "setting": "[3]; may be taken relative to mock treatment (comparable to 6 μM cyclopamine), cytotoxic compounds: at highest effective non-cytotoxic concentration", "result": 91, "unit": "%"},
      {"measurement": "ShhN binding in SPR", "setting": "[1]", "result": "ShhN-binding capacity at concentrations between 1.56 μM and 25 μM; also recorded: concentration-dependent binding to purified ShhN"},
      {"measurement": "dissociation time in SPR", "setting": "[1]; compared with AML1 and AML2", "result": "longer dissociation time than AML1 and AML2"},
      {"measurement": "hair follicles in skin cross sections", "setting": "hair regrowth; 12 days post depilation", "result": "lack of hair follicles"},
      {"measurement": "hair regrowth", "setting": "hair regrowth; topical, daily, 8 and 12 days post depilation, C57BL/6J mice", "result": "blocked hair regrowth"},
      {"measurement": "histology of treated synthetic skin", "setting": "[4]", "result": "histologically normal"},
      {"measurement": "Gli1 and Gli2 mRNA levels in synthetic skin", "setting": "[4]; qPCR after incubation", "result": "reduced levels of Gli1 and Gli2 mRNA"},
      {"measurement": "effect on Gli1/Gli2 mRNA with co-administered Smo agonists purmorphamine and SAG", "setting": "Gli1 mRNA; primary human keratinocytes", "result": "this effect is blocked"},
      {"measurement": "endogenous Gli1 mRNA level", "setting": "Gli1 mRNA; qPCR, normalized for cell titer", "result": "lowers levels"}
    ]}
  ]
}
